# Laboratory results published in paper PMC9995496, “A screen for MeCP2-TBL1 interaction inhibitors using a luminescence-based assay” (Scientific Reports, 2023).
# Molecular target: T1, MeCP2-TBL1 interaction (MeCP2-SmBiT / TBL1-LgBiT) (Mus musculus, UniProt Q9QXE7)
# T1 construct: expressed in transfected cells; crude lysate used as a cell-free assay
# T1 sequence (Q9QXE7 166-527): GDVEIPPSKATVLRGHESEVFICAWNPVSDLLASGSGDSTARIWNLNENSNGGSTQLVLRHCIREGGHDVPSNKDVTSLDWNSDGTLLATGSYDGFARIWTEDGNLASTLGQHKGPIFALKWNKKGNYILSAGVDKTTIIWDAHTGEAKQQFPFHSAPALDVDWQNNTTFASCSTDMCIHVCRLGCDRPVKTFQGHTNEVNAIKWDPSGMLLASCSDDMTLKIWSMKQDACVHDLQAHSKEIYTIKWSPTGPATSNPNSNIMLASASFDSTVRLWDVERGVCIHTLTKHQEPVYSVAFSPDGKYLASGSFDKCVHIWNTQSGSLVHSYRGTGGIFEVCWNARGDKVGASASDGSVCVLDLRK
# Test: MeCP2-TBL1 NanoLuc luciferase complementation assay (cell-free, extracts of transfected HEK293 cells);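 note: each compound tested at 20 µM final concentration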
# Format: binding, human
# Method in brief: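 Cell-free split NanoLuc: lysate of HEK293 cells co-expressing the MeCP2 C-terminal half-SmBiT and TBL1 WD domain-LgBiT, mixed 1:1 with furimazine. After 30 min at room temperature, luminescence was plate-median normalized.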
# [1] = primary screen of Asinex library, single well per compound
# [2] = primary screen of the Asinex library, sheet "Sargen output Asinex library", one well per compound
# [3] = primary screen of the Asinex library, sheet "Sargen output Asinex library", one well per compound, Batch Ref. 1
Inhibition percent [2] [%],Inhibition percent [3] [%],Structure (SMILES),also measured
–,0.40,CN1C(=O)C2(CCN(C(=O)C3(c4ccccc4)CCOCC3)CC2)CC1Cc1ccccc1 (stereo not drawn) [BDH_32374590],–
6.38,–,COc1cccc(-c2cc(C(=O)N3CCC[C@@]4(C[C@@H](Oc5cccc(Cl)c5)CO4)C3)[nH]n2)c1 [BDH_33516566],–
–,-0.88,CC(C)CN1C(=O)C2(CCN(C(=O)Cn3cccnc3=O)CC2)CC1Cc1ccc(F)cc1 (stereo not drawn) [BDH_33517008],–
-4.74,–,COc1ccccc1Cc1ccc(C(=O)N2CCCC2c2cncc(-c3nc(C)c[nH]3)n2)cn1 (stereo not drawn) [BDH_33521296],–
–,0.21,COc1ccccc1Cc1ccc(C(=O)N2CCC(c3cccc(-c4cncn4C)n3)CC2)cn1 [BDH_33521315],–
-1.25,–,COc1ccccc1Cc1ccc(C(=O)N2CCCC2c2cccc(-c3cncn3C)n2)cn1 (stereo not drawn) [BDH_33521317],–
–,-0.09,CNC(=O)c1cnn2c(C3CCCN(C(=O)c4ccnc(Cc5cccc(F)c5)c4)C3)ccnc12 (stereo not drawn) [BDH_33521351],–
-2.90,–,Cc1c[nH]c(-c2cncc(C3CCCN(C(=O)c4ccnc(Cc5cccc(F)c5)c4)C3)n2)n1 (stereo not drawn) [BDH_33521385],–
–,-2.61,Cn1ccnc1-c1nccnc1C1CCN(C(=O)c2ccnc(Cc3cccc(F)c3)c2)CC1 [BDH_33521386],–
–,0.73,Cc1c[nH]c(-c2cncc(CC3CCN(C(=O)c4ccc(Cc5ccccc5F)nc4)CC3)n2)n1 [BDH_33521764],–
–,0.17,COc1ccccc1Cc1cc(C(=O)N2CCCC2c2cncc(-c3nc(C)c[nH]3)n2)ccn1 (stereo not drawn) [BDH_33522145],–
–,6.35,COc1ccccc1Cc1cc(C(=O)N2CCC(c3nccnc3-c3nc(C)c[nH]3)CC2)ccn1 [BDH_33522161],–
1.71,–,COc1ccc([C@@H]2C[C@]3(C)NC(=O)CCC[C@@H]3N2CC2(O)CCN(c3cccc(OC)c3)CC2)cc1 [BDH_33611075],–
–,-0.28,COc1ccc(N2CCN(CC3(O)CCN(c4cccc(C)c4)CC3)C(C(N)=O)C2)cc1 (stereo not drawn) [BDH_33612322],–
1.72,–,COc1ccc([C@@H]2[C@H]3CCCC[C@@]3(O)CCN2CC(=O)Nc2ccc(N3CCOCC3)cc2)cc1 [BDH_33614948],–
-1.45,–,CC(=O)N[C@@H]1C[C@@H](C(=O)N(C)C)N(CC(=O)Nc2ccc3[nH]c(=O)[nH]c3c2)[C@H]1c1ccccc1 [BDH_33615574],–
–,0.09,COc1cccc([C@@H]2C[C@]3(C)NC(=O)CCCC[C@@H]3N2CC(=O)NCCc2nc3ccccc3[nH]2)c1 [BDH_33615965],–
-2.04,–,C[C@]12C[C@@H](Cc3ccccc3)N(CC(=O)NCCc3nc4ccccc4[nH]3)[C@H]1CCCC(=O)N2 [BDH_33616100],–
–,1.14,CC(=O)N[C@@]12CN(CC(=O)Nc3ccc4nc(C)[nH]c4c3)CC[C@@H]1[C@@H](c1ccccc1)N(C(C)=O)C2 [BDH_33616134],–
–,6.38,Cc1nc2ccc(NC(=O)CN3CC[C@@]4(C)[C@@H]3CCCCC(=O)N4Cc3ccc(F)cc3)cc2[nH]1 [BDH_33616216],–
-0.29,–,CC(=O)N[C@@]12CN(CC(=O)Nc3cccc(C(F)(F)F)c3)CC[C@@H]1[C@@H](c1ccccc1)N(C)C2 [BDH_33616433],–
–,6.90,C[C@]12C[C@@H](Cc3ccccc3)N(CC(=O)Nc3cccc(C(F)(F)F)c3)[C@H]1CCCC(=O)N2 [BDH_33616434],–
-1.20,–,CC(=O)N[C@@]12CN(C)CC[C@@H]1[C@@H](c1ccccc1)N(CC(=O)Nc1ccc3c(c1)OCCO3)C2 [BDH_33617398],–
–,1.15,Cc1nc2cc(NC(=O)CN3C[C@@H](c4cc(F)cc(F)c4)[C@@]4(CCCCC(=O)N4)C3)ccc2n1C [BDH_33617993],–
–,4.89,COc1ccc([C@@H]2C[C@]3(C)NC(=O)CCC[C@@H]3N2CC(=O)Nc2ccc3c(c2)nc(C)n3C)cc1 [BDH_33618124],–
–,1.43,COc1ccc(C)c(NC(=O)CN2CC[C@@]3(NC(C)=O)CN(C(C)=O)[C@H](c4ccccc4)[C@H]3C2)c1 [BDH_33618460],–
-3.37,–,COc1ccc(C)c(NC(=O)CN2CC[C@@H]3[C@@H](c4ccccc4)N(C(C)=O)C[C@]3(NC(C)=O)C2)c1 [BDH_33618463],–

# Further lines, the compound ahead of its results:
Structure (SMILES),Inhibition percent [2] [%],Inhibition percent [3] [%],also measured
Cc1nccn1Cc1ccccc1C(=O)N1C[C@@H](c2cccc(F)c2)[C@@]2(CCCCC(=O)N2)C1 [BDH_32372714],–,–,Inhibition percent [1]: -2.77
O=C1CCCN1CCOc1ccccc1C(=O)N1CCCC(Cc2cn3ccnc3cn2)CC1 (stereo not drawn) [BDH_32372856],-2.49,–,–
CNC(=O)c1cccc(C2CN(C(=O)c3ccc(OCc4ccccn4)c(OC)c3)CCN2C)c1 (stereo not drawn) [BDH_32373002],4.71,–,–
COCC(=O)N1CCC(C)(C(=O)N2CCCC2c2ccnc(-c3cccc(Cl)c3)n2)CC1 (stereo not drawn) [BDH_32373816],–,–,Inhibition percent [1]: 0.44
Cn1cc(-c2cc(C(=O)N3CCCC(c4cccc(-c5cccc(C(N)=O)c5)n4)C3)ccn2)cn1 (stereo not drawn) [BDH_32374050],-6.35,–,–
O=C(c1ccccc1Cn1ccnc1)N1CCOCC2(C1)CN(c1ccc(Cl)cc1)C(=O)O2 (stereo not drawn) [BDH_32374184],–,–,Inhibition percent [1]: 1.12
Cn1ccc(C(=O)Nc2ccccc2C(=O)N2CCC3(CN(Cc4ccccc4)C(=O)O3)C2)n1 (stereo not drawn) [BDH_32374198],-4.02,–,–
C[C@]12C[C@@H](Cc3ccccc3)N(C(=O)c3cccc(CN4CCCC4=O)c3)[C@H]1CCCC(=O)N2 [BDH_32374892],–,-1.59,–
COCC(=O)N1CCC(C)(C(=O)N2CCC[C@]3(C[C@@H](Oc4cccc(F)c4)CO3)C2)CC1 [BDH_32375031],-4.50,–,–
C[C@@]12C[C@H]3[C@H](Cc4ccccc4)N[C@@H]1CCCC[C@@H]2N3C(=O)c1ccnc(Cc2ccccc2)c1 [BDH_33392602],3.55,–,–
O=C(COc1ncnc2ccccc12)N1CCC[C@@]2(C[C@@H](Oc3ccc(F)c(Cl)c3)CO2)C1 [BDH_33516387],–,–,Inhibition percent [1]: 6.08
O=C(c1cc(-c2cccc(F)c2)no1)N1CCC[C@@]2(C[C@@H](Oc3ccccc3F)CO2)C1 [BDH_33517958],4.74,–,–
COc1ccc([C@H]2CN(C)[C@@H]3CCN(C(=O)c4ccnc(Cc5ccccc5OC)c4)C[C@H]23)cc1 [BDH_33520255],-0.37,–,–
COc1ccccc1Cc1ccc(C(=O)N2CCCC2c2cncc(-c3nccn3C)n2)cn1 (stereo not drawn) [BDH_33521295],–,-3.44,–
Cc1c[nH]c(-c2nccnc2CC2CCCN(C(=O)c3ccnc(Cc4cccc(F)c4)c3)C2)n1 (stereo not drawn) [BDH_33521378],–,–,Inhibition percent [1]: -5.26
NC(=O)c1cc(CC2CCCN(C(=O)c3ccnc(Cc4ccccc4)c3)CC2)ncn1 (stereo not drawn) [BDH_33521416],-0.17,–,–
NC(=O)c1cnn2c(C3CCCCN3C(=O)c3ccnc(Cc4ccccc4)c3)ccnc12 (stereo not drawn) [BDH_33521422],–,-0.87,–

Structure (SMILES),Inhibition percent [2] [%],Inhibition percent [3] [%],also measured
CNC(=O)c1cnn2c(C3CCCCN3C(=O)c3ccnc(Cc4ccccc4F)c3)ccnc12 (stereo not drawn) [BDH_33521663],–,-0.23,–
O=C(c1ccnc(Cc2ccccc2F)c1)N1CCC(Cc2nccnc2-c2ncc[nH]2)CC1 [BDH_33521693],–,0.97,–
COc1cccc(N2CCC(O)(CN3C[C@@H](c4cccc(F)c4)[C@@]4(CCCC(=O)N4)C3)CC2)c1 [BDH_33611042],–,2.32,–
COc1cccc([C@@H]2C[C@]3(C)NC(=O)CCCC[C@@H]3N2CC(=O)Nc2ccc(N3CCCC3)cc2)c1 [BDH_33614614],–,–,Inhibition percent [1]: -1.03
COc1cccc([C@@H]2C[C@]3(C)NC(=O)CCCC[C@@H]3N2CC(=O)Nc2ccc3[nH]c(=O)[nH]c3c2)c1 [BDH_33615500],-1.75,–,–
CC(=O)N1CCN(CC(=O)NCCc2nc3ccccc3[nH]2)CC1c1ccc(C(F)(F)F)cc1 (stereo not drawn) [BDH_33616082],-1.86,–,–
Cc1nc2ccc(NC(=O)CN3C[C@@H](c4cc(F)cc(F)c4)[C@@]4(CCCCC(=O)N4)C3)cc2[nH]1 [BDH_33616136],–,–,Inhibition percent [1]: -1.00
CC(=O)N[C@H]1C[C@@H](C(=O)N(C)C)N(CC(=O)Nc2cccc(C(F)(F)F)c2)[C@H]1c1ccccc1 [BDH_33616368],-1.15,–,–
Cc1n[nH]c(C)c1NC(=O)CN1C[C@@H](c2cc(F)cc(F)c2)[C@@]2(CCCCC(=O)N2)C1 [BDH_33616713],–,–,Inhibition percent [1]: -0.00541
NC(=O)C1CN(Cc2ccccc2)CCN1CC(=O)Nc1ccccc1C(F)(F)F (stereo not drawn) [BDH_33617130],-2.26,–,–
C[C@]12C[C@@H](c3ccccc3)N(CC(=O)Nc3ccc4c(c3)OCCO4)[C@H]1CCCCCN2 [BDH_33617257],–,–,Inhibition percent [1]: -2.26
CC(=O)N[C@H]1C[C@@H](C(=O)N(C)C)N(CC(=O)Nc2ccc3c(c2)OCCO3)[C@H]1c1ccccc1 [BDH_33617336],–,–,Inhibition percent [1]: -1.52
CCn1c(=O)oc2cc(NC(=O)CN3C[C@]4(NC(C)=O)CN(C)CC[C@@H]4[C@H]3c3ccccc3)ccc21 [BDH_33617644],-0.000394,–,–
COc1cccc([C@@H]2C[C@]3(C)NC(=O)CCCC[C@@H]3N2CC(=O)Nc2ccc3c(c2)nc(C)n3C)c1 [BDH_33617989],1.66,–,–
CC(=O)N[C@@]12CN(C)CC[C@@H]1[C@@H](c1ccccc1)N(CC(=O)Nc1ccc3c(c1)nc(C)n3C)C2 [BDH_33618117],–,4.04,–
O=C(CN1C[C@@H](c2cc(F)cc(F)c2)[C@@]2(CCCCC(=O)N2)C1)Nc1ccnn1C1CCCC1 [BDH_33619464],4.29,–,–
